{"source": "patent US20080038278A1", "about": "“GPAT3 encodes a mammalian, microsomal acyl-coa:glycerol 3- phosphate acyltransferase” (priority 2006, published 2008)", "key": {"hGPAT3": {"molecular_target": "T1, hGPAT3 (Homo sapiens, UniProt Q53EU6)", "T1 construct": "full-length mouse and human GPAT3 were cloned by PCR amplification from cDNA libraries; made in house; host or cells: Sf9 insect cells (baculovirus, pFASTBAC1), total lysate; some experiments used lysates of HEK293 cells transfected with hGPAT3 in pcDNA3.1", "T1 sequence (Q53EU6 1-434)": "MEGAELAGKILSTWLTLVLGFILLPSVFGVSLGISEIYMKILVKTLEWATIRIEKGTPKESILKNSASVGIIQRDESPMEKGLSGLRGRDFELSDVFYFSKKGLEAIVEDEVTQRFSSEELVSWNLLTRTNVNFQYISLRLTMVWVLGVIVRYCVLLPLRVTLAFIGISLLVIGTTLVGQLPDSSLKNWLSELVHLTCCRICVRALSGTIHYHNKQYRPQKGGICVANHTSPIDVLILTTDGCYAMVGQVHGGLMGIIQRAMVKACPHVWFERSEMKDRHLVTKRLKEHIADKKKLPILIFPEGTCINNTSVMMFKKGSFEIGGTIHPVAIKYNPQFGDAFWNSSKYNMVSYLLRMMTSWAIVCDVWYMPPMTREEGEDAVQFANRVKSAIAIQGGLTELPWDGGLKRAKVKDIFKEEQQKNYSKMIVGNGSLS", "assay": "GPAT activity assay (TLC separation of LPA) in lysates of cells overexpressing hGPAT3", "type": "biochemical", "conditions": "for substrate concentration at half-maximal activity (hGPAT3-dependent LPA formation): hGPAT3 expressed in Sf9 cells, nonpurified lysate, other substrate at 100 μM; for increase in LPA formation conferred by hGPAT3 overexpression after NEM pretreatment: preincubated 15 min with NEM (0.4 mM, 0.4 μM elsewhere in the source)", "source_text": "Sf9 cells were infected with recombinant baculovirus at an MOI of 10 for 64 hrs. Cell pellets were harvested in ice-cold phosphate-buffered saline (PBS), lysed by sonication or Parr bomb, and total lysate was used immediately for enzyme assay. For subcellular fractionation, cel.ls were lysed with a rapid nitrogen decompression method (Parr Instrument Company, IL), followed by differential centrifugation at 8,000g (mitochondrial fraction) and 1 00,000g (microsomal fraction). Total protein concentration was assayed using a Bio-Rad protein assay with bovine serum albumin (BSA) as a standard (Bio-Rad, Hercules, Calif.). GPAT activity was determined by measuring the conversion of glycerol 3-phosphate (G3 P) to 1-acyl-sn-glycerol 3-phosphate in the presence of acyl-CoA. Formation of enzymatic products was detected by either the conventional 1-butanol extraction method followed by scintillation counting, or by thin layer chromatography (TLC) separation followed by exposure to a phosphorimager screen. GPAT activity assay by I -butanol extraction was performed as described (Yet et al., supra; Haldar and Vancura (1992) Methods Enzymol. 209:64-72). Briefly, cell lysates containing 100 μg protein were incubated for 20 min at room temperature in 75 mM Tris HCl, pH 7.5, 4 mM MgCl2, 1 mg/ml fatty acid-free BSA, 8 mM NaF, 50 μM lauroyl-CoA, 3 mM glycerol 3-phosphate, and 1 μCi of [^3H]glycerol 3-phosphate (30 Ci/mmol, American Radiolabeled Chemicals, Inc., St. Louis, Mo.) in a total volume of 250 μl. The reaction was stopped by addition of 0.5 ml of water-saturated 1-butanol and 0.5 ml of 1-butanol-saturated water followed by a vigorous vortex for 5 min. After a brief spin, the top phase (butanol) was transferred to a fresh tube and washed again with 0.5 ml of butanol-saturated water. Finally, an aliquot of the butanol phase was mixed with scintillation cocktail to count radioactivity using Accurate Radioisotope Counting (ARC).\nTo assess the GPAT activity more precisely, a TLC separation procedure was utilized. […] For TLC, enzymatic products were identified using standards detected by exposure to […]. All quantitative data are expressed as mean±S.E. Statistical analyses for differences between two groups were carried out using a Student's t-test.\nTo further investigate the role of GPAT3 in TAG and/or phospholipid synthesis in mammalian cells, GPAT3 was overexpressed in HEK293 cells and the incorporation of [^14C]oleic acid into TAG or phospholipids was measured. […]"}, "human mtGPAT1": {"molecular_target": "T2, human mtGPAT1 (Homo sapiens, UniProt Q9HCL2)", "T2 construct": "expressed in transfected cells; host or cells: HEK293 cells, transient transfection (FUGENE 6); total lysate assayed", "T2 sequence (Q9HCL2 1-828)": "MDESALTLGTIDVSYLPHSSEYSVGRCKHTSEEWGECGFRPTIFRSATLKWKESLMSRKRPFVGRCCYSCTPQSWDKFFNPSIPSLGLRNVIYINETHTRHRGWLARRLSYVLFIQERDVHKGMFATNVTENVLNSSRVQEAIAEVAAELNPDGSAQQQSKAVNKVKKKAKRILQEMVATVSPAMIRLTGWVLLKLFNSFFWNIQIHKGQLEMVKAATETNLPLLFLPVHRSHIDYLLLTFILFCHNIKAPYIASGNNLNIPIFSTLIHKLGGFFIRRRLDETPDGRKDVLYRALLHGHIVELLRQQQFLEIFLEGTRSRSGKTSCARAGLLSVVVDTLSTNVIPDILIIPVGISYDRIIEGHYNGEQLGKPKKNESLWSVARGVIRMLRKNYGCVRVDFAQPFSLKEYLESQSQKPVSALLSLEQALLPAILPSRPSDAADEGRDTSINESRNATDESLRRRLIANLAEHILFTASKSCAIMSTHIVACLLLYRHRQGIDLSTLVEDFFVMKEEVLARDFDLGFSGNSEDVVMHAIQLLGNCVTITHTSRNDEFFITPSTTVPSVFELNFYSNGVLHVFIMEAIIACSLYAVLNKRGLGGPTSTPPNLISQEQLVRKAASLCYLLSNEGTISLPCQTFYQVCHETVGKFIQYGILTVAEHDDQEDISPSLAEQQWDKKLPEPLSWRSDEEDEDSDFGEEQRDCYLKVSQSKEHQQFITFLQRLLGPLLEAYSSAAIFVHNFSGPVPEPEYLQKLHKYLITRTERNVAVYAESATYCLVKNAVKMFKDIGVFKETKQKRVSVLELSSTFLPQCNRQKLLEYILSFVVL", "assay": "GPAT activity assay (TLC separation of LPA) in lysates of HEK293 cells overexpressing mtGPAT1", "type": "biochemical", "conditions": "preincubated 15 min with NEM"}, "mGPAT3 mRNA": {"test_system": "mGPAT3 mRNA", "assay": "mGPAT3 mRNA (Q-PCR) in white adipose tissue of ob/ob mice treated with PPARγ agonist", "type": "in vivo, mouse", "conditions": "15 mg/kg gavage once a day for 21 days", "description": "To confirm and extend the transcriptional profiling data, TAQMAN® (Applied Biosystems, Foster City, Calif.) real-time quantitative PCR (Q-PCR) analysis was performed using probes specific for mouse and human GPAT3. Briefly, undifferentiated and differentiated 3T3-L1 adipocytes, tissues from normal 8-12 week old male C57B1/6J mice, and tissues from 10-week old male ob/ob and age-matched wild type control mice were obtained as previously described (Lake et al., supra). For PPARγ agonist treatment, 10-week old male ob/ob mice were gavaged once a day with 15 mg/kg rosiglitazone or vehicle control for 21 days. RNA and cDNA were prepared as previously described (Lake et al., supra). Gene profiling data were generated using the MOE430 chip according to the manufacturer's recommendations (Affymetrix, Santa Clara, Calif.). Q-PCR was performed using an ABI PRISM® 7900 sequence detector (Applied Biosystems, Foster City, Calif.) with 18s as an internal control as described (Lake et al., supra). Gene-specific primers and probes were obtained from Applied Biosystems (Cat. Nos. mm00554802_ml and Hs00262010_ml). Relative expression was determined by the […] (Applied Biosystems, Foster City, Calif.).\nPPARγ agonists such as rosiglitazone induce expression of the lipogenic program in adipose tissue (Rosen and Spiegelman (2001) J. Biol. Chem. 276:37731-34). […]"}}, "data": [{"smiles": "O=P(O)(O)OCC(O)CO", "note": "(stereo not drawn) [G3P, glycerol 3-phosphate]", "values": [{"measurement": "substrate concentration at half-maximal activity (hGPAT3-dependent LPA formation)", "setting": "hGPAT3", "value": "~80", "unit": "µM"}]}, {"smiles": "CCN1C(=O)C=CC1=O", "note": "[NEM, N-ethylmaleimide]", "values": [{"measurement": "increase in LPA formation conferred by hGPAT3 overexpression after NEM pretreatment", "setting": "hGPAT3; HEK293 lysates", "value": "completely abolished"}, {"measurement": "increase in LPA formation conferred by hGPAT3 overexpression after NEM pretreatment", "setting": "hGPAT3; Sf-9 lysates", "value": "completely abolished"}, {"measurement": "mtGPAT1-dependent LPA formation after NEM pretreatment", "setting": "human mtGPAT1", "value": "not affected"}]}, {"smiles": "CCCCCCCCCCCC(=O)SCCNC(=O)CCNC(=O)[C@H](O)C(C)(C)COP(=O)(O)OP(=O)(O)OC[C@H]1O[C@@H](n2cnc3c(N)ncnc32)[C@H](O)[C@@H]1OP(=O)(O)O", "note": "[lauroyl-CoA]", "values": [{"measurement": "substrate concentration at half-maximal activity (hGPAT3-dependent LPA formation)", "setting": "hGPAT3", "value": "~25", "unit": "µM"}]}, {"smiles": "CN(CCOc1ccc(CC2SC(=O)NC2=O)cc1)c1ccccn1", "note": "(stereo not drawn) [rosiglitazone]", "values": [{"measurement": "induced expression of mGPAT3 mRNA in white adipose tissue over control", "setting": "mGPAT3 mRNA", "value": 4.5, "unit": "fold"}]}]}
